Experimental data taken from patent publication US4025508A, “6-(Trifluoromethyl)-benzothiadiazines” (Serdex - Societe d'Etudes, de Recherches, de Diffusion et …, priority 1973, dated 1977).

How the values were obtained:
glycemia [1] = assay: Hyperglycemia-producing activity, tests in rats (glycemia); type: in vivo, rat (adult white rats)
Description: The following test methods were used to determine the hyperglycemia-producing activity:
The experiments were conducted in adult white rats weighing 200 g+ 10 g.
The products were administered as a suspension in gummy julep, by stomach tube, at dosages of 10, 20 and 100 mg/kg, p.o.
At each dosage level, and in each case, lots of 10 test animals (5 male and 5 female) and of 10 reference animals (5 male and 5 female, administered only the gummy Julep) were used.
Blood samples were taken by cardiac puncture, at times 15, 60 minutes and 2, 4 and 24 hours after administration of the products, and the glycemia was determined.

[2] = Acute toxicity (LD50 /24 hours); conditions: in vivo, po
glycemia [3] = assay: Hyperglycemia-producing activity, tests in dogs (glycemia); type: in vivo, dog; conditions: p.o.
[4] = test system: cardiovascular parameters; assay: Cardiovascular parameters (blood pressures, cardiac rhythm) in anesthetized dogs; type: in vivo, dog; conditions: 100 mg/kg, p.o.

For `O=S1(=O)NC=Nc2cc(C(F)(F)F)c(F)cc21` [Example 1, 6-trifluoromethyl-7-fluoro-2H-1,2,4-benzothiadiazine-1,1-dioxide], the glycemia after administration (glycemia [1]; 100 mg/kg p.o., twenty-four hours after administration, from 0.839± 0.042 g/l) was 1.212 ± 0.041 g/L, the “action on the glycemia” value (glycemia [1]; 10 or 20 mg/kg, p.o.) was “no significant action” and the LD50 at 24 h [2] was 3230 mg/kg. The “increase of the glycemia” value (glycemia [3]; 100 mg/kg) was “about 25%”, the “action on the glycemia” value (glycemia [3]; 10 or 20 mg/kg) was “no significant action” and the “action on the cardiac rhythm” value [4] was “nor on the cardiac rhythm”. The “action on the diastolic pressure” value [4] was “no significant action”, the “action on the differential pressure” value [4] was “no significant action” and the “action on the mean pressure” value [4] was “no significant action”. The “action on the systolic pressure” value [4] was “no significant action”.
